Active and inactive are the calls of the source. No cut-off for these calls is given here.
Legend:
Type in all cases: functional, organism-based
Agrostis stolonifera [1] = assay: Phytotoxic activity against Agrostis stolonifera var. Penncross seedlings assessed as growth inhibition at 0.3 mM
Agrostis stolonifera [2] = assay: Phytotoxic activity against Agrostis stolonifera var. Penncross seedlings assessed as growth inhibition at 0.1 mM
Agrostis stolonifera [3] = assay: Phytotoxic activity against Agrostis stolonifera var. Penncross seedlings assessed as growth inhibition at 0.03 mM
Agrostis stolonifera [4] = assay: Phytotoxic activity against Agrostis stolonifera var. Penncross seedlings assessed as growth inhibition at 0.01 mM
Lactuca sativa [5] = assay: Phytotoxic activity against Lactuca sativa cv. Iceberg A (lettuce) seedlings assessed as growth inhibition at 0.3 mM
Lactuca sativa [6] = assay: Phytotoxic activity against Lactuca sativa cv. Iceberg A (lettuce) seedlings assessed as growth inhibition at 0.1 mM
Lactuca sativa [7] = assay: Phytotoxic activity against Lactuca sativa cv. Iceberg A (lettuce) seedlings assessed as growth inhibition at 0.03 mM
Lactuca sativa [8] = assay: Phytotoxic activity against Lactuca sativa cv. Iceberg A (lettuce) seedlings assessed as growth inhibition at 0.01 mM
Agrostis stolonifera [9] = assay: Phytotoxic activity against Agrostis stolonifera var. Penncross seedlings assessed as growth inhibition at 1 mM
Lactuca sativa [10] = assay: Phytotoxic activity against Lactuca sativa cv. Iceberg A (lettuce) seedlings assessed as growth inhibition at 1 mM

SMILES | growth inhibition (GI) (Agrostis stolonifera [1]) | growth inhibition (GI) (Agrostis stolonifera [2]) | growth inhibition (GI) (Agrostis stolonifera [3]) | growth inhibition (GI) (Agrostis stolonifera [4]) | growth inhibition (GI) (Lactuca sativa [5]) | growth inhibition (GI) (Lactuca sativa [6]) | growth inhibition (GI) (Lactuca sativa [7]) | growth inhibition (GI) (Lactuca sativa [8]) | growth inhibition (GI) (Agrostis stolonifera [9]) | growth inhibition (GI) (Lactuca sativa [10])
CCCCCCCCCCC1=C(OC)C(=O)C=C(OC)C1=O | inactive | inactive | inactive | inactive | inactive | inactive | inactive | inactive |  | 
CCCCCC1=C(OC)C(=O)C=C(OC)C1=O |  |  | inactive | inactive |  | inactive | inactive | inactive |  | 
C=CC/C=C\C/C=C\CCCCCCCC1=C(O)C(=O)C=C(OC)C1=O | inactive | inactive | inactive | inactive |  |  | inactive | inactive | inactive | 
CCCCCCCCCCCCCCC1=C(O)C(=O)C=C(OC)C1=O | inactive | inactive | inactive | inactive |  | inactive | inactive | inactive | inactive | 
CCCCCC1=C(O)C(=O)C=C(OC)C1=O |  |  | inactive | inactive |  | inactive | inactive | inactive |  | Active
